Results on 4 molecules are retold here after ChEMBL document CHEMBL1151558, “An efficient synthesis and biological activities of 19-nor-17-hydroxy-17-trifluoromethyl-4-estren-3-one and its analogs” (Bioorg Med Chem Lett, 1995).

Each structure is given as a SMILES string.

Assay [1] addresses T1, Progesterone receptor (Rattus norvegicus) (UniProt Q63449).
T1 sequence (whole entry): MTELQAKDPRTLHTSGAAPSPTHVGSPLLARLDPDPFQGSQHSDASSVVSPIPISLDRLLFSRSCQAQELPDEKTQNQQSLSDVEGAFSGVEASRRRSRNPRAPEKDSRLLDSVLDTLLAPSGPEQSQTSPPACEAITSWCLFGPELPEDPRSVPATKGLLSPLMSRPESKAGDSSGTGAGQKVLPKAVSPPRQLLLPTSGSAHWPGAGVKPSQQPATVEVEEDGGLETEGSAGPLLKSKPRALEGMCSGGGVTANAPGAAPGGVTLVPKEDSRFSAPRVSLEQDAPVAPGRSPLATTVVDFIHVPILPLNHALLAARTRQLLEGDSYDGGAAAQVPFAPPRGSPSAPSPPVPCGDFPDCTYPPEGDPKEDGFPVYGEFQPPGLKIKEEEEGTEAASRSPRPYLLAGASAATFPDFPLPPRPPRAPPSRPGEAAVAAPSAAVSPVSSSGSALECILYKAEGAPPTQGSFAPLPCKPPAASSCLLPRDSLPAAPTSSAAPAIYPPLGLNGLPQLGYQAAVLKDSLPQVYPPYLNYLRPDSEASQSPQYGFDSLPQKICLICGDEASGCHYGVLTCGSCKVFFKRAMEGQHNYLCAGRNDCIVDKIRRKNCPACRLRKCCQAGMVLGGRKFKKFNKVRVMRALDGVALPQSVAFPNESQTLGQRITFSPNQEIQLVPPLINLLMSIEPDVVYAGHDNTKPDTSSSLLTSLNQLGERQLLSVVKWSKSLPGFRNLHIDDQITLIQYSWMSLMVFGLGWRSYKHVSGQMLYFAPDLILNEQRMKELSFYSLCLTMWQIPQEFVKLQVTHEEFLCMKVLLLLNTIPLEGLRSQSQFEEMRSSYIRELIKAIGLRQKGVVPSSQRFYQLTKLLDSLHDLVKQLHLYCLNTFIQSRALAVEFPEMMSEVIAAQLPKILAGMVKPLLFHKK
Briefly: Binding affinity for cytosolic progesterone receptor (PRc) of rat uterus compared to RU-486.

In the next assay the target is T2, Progesterone receptor (Rattus norvegicus, UniProt Q63449).
T2 sequence (Q63449 whole entry): T1 sequence (whole entry)
Put plainly: Inhibition of [3H]R5020 binding to cytosolic progesterone receptor (PRc) of rat uterus.

The term IC50 denotes the midpoint of a concentration-inhibition curve.

`CC#C[C@]1(O)CC[C@H]2[C@@H]3CCC4=CC(=O)CCC4=C3[C@@H](c3ccc(N(C)C)cc3)C[C@@]21C` had a relative binding affinity (RBA) in assay [1] of 100.
In turn, `C[C@]12CCC3=C4CCC(=O)C=C4CCC3C1CC[C@@]2(O)C(F)(F)F` (some centres not stated) registered an IC50 on Progesterone receptor of 4.5 nM. The molecule also returned a relative binding affinity (RBA) in assay [1] of 77.8.
The like results for `C[C@]12CCC3C(CCC4=CC(=O)CC[C@@H]43)C1CC[C@@]2(O)C(F)(F)F` (some centres not stated) were, in that order, 1.2 nM and 292.
The like results for `C[C@]12C=CC3=C4CCC(=O)C=C4CCC3C1CC[C@@]2(O)C(F)(F)F` (some centres not stated) were, in that order, 9 nM and 38.9.
